# Results reported in patent publication US20250091989A1, “SMALL MOLECULE PROTEIN SYNTHESIS MODULATORS” (Interdict Bio, Inc., priority 2023, published 2025).
# What was measured:
# Format in all cases: biochemical
# Settings in all cases: HeLa S3 lysate, sfGFP/mCherry ratio, 2 hrs at 30° C.
# [1] = tested on: ALK; experiment: In vitro transcription-translation (IVTT) reporter assay, ALK test sequence
# Summary of the method: (§1)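 Coupled transcription-translation in HeLa S3 lysate with reporter plasmids encoding mCherry-P2A-3×FLAG-TEST-sfGFP behind an EMCV IRES. Compounds were half-log titrated (30 μM-0.1 μM in DMSO dilution plate) into master mix, then DNA was added. Reactions ran 2 hrs at 30° C, were PBS-quenched and read for fluorescence.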
# [2] = tested on: KRAS G12D; experiment: In vitro transcription-translation (IVTT) reporter assay, KRAS G12D test sequence
# Summary of the method: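 Compounds, half-log titrated 30 μM-0.1 μM in DMSO, were mixed with HeLa S3 lysate master mix and plasmid DNA, then incubated 2 h at 30 °C before PBS quench. Each construct fuses the CCND1, KRAS G12D, MCL-1 or BCL-2 sequence between 3×FLAG and sfGFP, downstream of mCherry-P2A.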
# [3] = tested on: MYC; experiment: In vitro transcription-translation (IVTT) reporter assay, MYC test sequence
# Summary of the method: as §1
# [4] = tested on: CCND1; experiment: In vitro transcription-translation (IVTT) reporter assay, CCND1 test sequence
# Text: (§2) All reporter constructs have been cloned into the pT7CFE1-CHis plasmid (ThermoFisher #88860) using Gibson assembly procedures (NEB #E2611L). The parental pT7CFE1-CHis plasmid contains an EMCV IRES at the 5′UTR for translation initiation, a multiple-cloning site (MCS) for gene insertion, an optional C-terminal His-epitope tag, and polyA sequence in the 3′UTR to regulate mRNA stability. All reporters are designed to be inserted at the MCS to include a red fluorescent protein (mCherry), P2A self-cleaving peptide which releases the preceding mCherry protein product, and a fusion open reading frame containing a 3×FLAG epitope, a peptide sequence of interest (TEST), and green fluorescent protein (sfGFP).
# (§3) Construct Plasmid Preparation: All plasmids are isolated from MACH1 cells (ThermoFisher) grown overnight in ampicillin-containing luria broth, and purified using ZymoPure Express Plasmid Midiprep Kit (Zymo Research). Constructs are sequenced verified and diluted to a working concentration of 110 ng/μL.
# (§4) HeLa S3 Lysate Preparation: HeLa S3 cell pellets are acquired from Ipracell/Ipratech (Belgium) and shipped as 4 mL frozen cell pellets on dry ice for storage at −80° C. until use. The procedure for lysate preparation is as follows. Prepare 1× Lysis Buffer, cold and stored on ice:
# (§5) Each preparation takes 8 cell pellets (4 ml packed volume each, approximately 1.0×10^9 cells per pellet). Thaw cell pellets from −80° C. on ice for 90 mins. Lay pellets horizontally on top of the ice and rotate every 30 mins to ensure even thawing. Once thawed, add 4 mL of cold lysis buffer to each pellet, and using a serological pipet, gently pipet up and down to break up clumps. Incubate resuspended cells in ice for an additional 30 mins (plunged into ice). During 30 min incubation, rinse and RNase-zap (Ambion) glass dounces (use loose pestle “A”), gently dry and place on ice until needed. Prepare RNase-free Eppendorf tubes for spinning and for batch storage. Add batch labels to 1.5-1.7 mL RNase-free microcentrifuge tubes (labeling scheme below). Each batch will have an extra 1.5-1.7 mL RNase-free microcentrifuge tube for 40 μL of lysate, label the top of this tube (labeling scheme below). After 30 min incubation, transfer all 8 mL of cell pellet to dounce. Cell lysis is complete after douncing 100 times. Aliquot cell lysis into 1.5-1.7 mL temporary-microcentrifuge tubes. Place tubes in centrifuge with “fins” out, and spin at 1,200 xg for 5 mins. After the first spin use a 1 mL pipet to resuspend each tube and repeat spin. This acts as an additional lysis step, is more vigorous and increases lysate yield. During second spin get liquid N2 and a fresh conical tube on ice.
# (§6) After spin is complete, transfer supernatant (lysate) from microcentrifuge tubes into the 50 mL conical tube and keep on ice. Repeat steps 10-14 for all other cell pellets until completed. Once all cell lysate has been transferred to the 50 mL conical tube pipet to mix so the solution is homogenous. Transfer 1 mL of lysate into batch-labeled microcentrifuge tubes and flash freeze in liquid nitrogen. Be sure to pipet up and down to mix throughout transfer step. Place all tubes in the […] for long-term storage.
# (§7) In vitro transcription-translation assay setup: Each assay includes a master mix containing lysate and shared components, a 96-well plate containing compound titrations for testing, a 96-well DNA plate with reporter constructs to be tested, 96-well skirted PCR plates, and 96-well flat-bottom, black, fluorescent assay plates. […]
# [5] = tested on: MCL-1; experiment: In vitro transcription-translation (IVTT) reporter assay, MCL-1 test sequence
# Text: as §2, §3, §4, §5, §6, §7
IC50 [1] [µM],IC50 [2] [µM],IC50 [3] [µM],IC50 [4] [µM],IC50 [5] [µM],SMILES
< 10,< 10,< 10,< 10,–,"COc1ccc(C[C@H]2NC[C@H](O)[C@H]2OC(=O)Cc2ccccn2)cc1 [V187082, (2R,3S,4S)-4-hydroxy-2-[(4-methoxyphenyl)methyl]pyrrolidin-3-yl 2-(pyridin-2-yl)acetate]"
–,–,< 10,< 10,< 10,"CC(=O)O[C@@H]1[C@@H](O)CN[C@@H]1Cc1ccc([N+](=O)[O-])cc1 [V188168, (2R,3S,4S)-4-hydroxy-2-[(4-nitrophenyl)methyl]pyrrolidin-3-yl acetate]"
–,–,< 10,< 10,< 10,COc1ccc(C[C@H]2NC[C@H](O)[C@H]2OC(C)=O)cc1Cl [V188046]
< 10,< 10,< 10,< 10,–,CC(=O)O[C@@H]1[C@@H](O)CN[C@@H]1Cc1ccc(-c2cn(Cc3ccccc3)nn2)cc1 [V187750]
< 10,< 10,< 10,< 10,–,COc1ccc(C[C@H]2NC[C@H](O)[C@H]2OC(=O)CCCCCO)cc1 [V186777]
–,–,> 30,–,> 30,"COc1ccc(C[C@H]2NC[C@](C)(O)[C@H]2OC(C)=O)cc1 [V188182, (2R,3S,4S)-4-hydroxy-2-[(4-methoxyphenyl)methyl]-4-methylpyrrolidin-3-yl acetate]"
–,< 10,< 10,< 10,–,"COc1ccc(C[C@H]2NC[C@H](O)[C@H]2OC(=O)CCc2cocn2)cc1 [V187176, (2R,3S,4S)-4-hydroxy-2-[(4-methoxyphenyl)methyl]pyrrolidin-3-yl 3-(1,3-oxazol-4-yl)propanoate; trifluoroacetic acid]"
< 10,> 30,< 10,> 30,–,"COc1ccc(C[C@H]2NC[C@H](O)[C@H]2OC(=O)CC2NC(=O)CNC2=O)cc1 (stereo partly drawn) [V186862, (2R,3S,4S)-4-hydroxy-2-[(4-methoxyphenyl)methyl]pyrrolidin-3-yl 2-(3,6-dioxopiperazin-2-yl)acetate]"
–,< 10,< 10,< 10,< 10,"COc1ccc(C[C@H]2NC[C@H](O)[C@H]2OC(=O)Cc2cc(Br)cs2)cc1 [V187070, (2R,3S,4S)-4-hydroxy-2-[(4-methoxyphenyl)methyl]pyrrolidin-3-yl 2-(4-bromothiophen-2-yl)acetate]"
< 10,< 10,< 10,< 10,–,"COc1ccc(C[C@H]2NC[C@H](O)[C@H]2OC(=O)Cc2cnccn2)cc1 [V187088, (2R,3S,4S)-4-hydroxy-2-[(4-methoxyphenyl)methyl]pyrrolidin-3-yl 2-(pyrazin-2-yl)acetate]"
< 10,< 10,< 10,–,–,"COc1ccc(C[C@H]2NC[C@H](O)[C@H]2OC(=O)CC2CC2)cc1 [V0113, (2R,3S,4S)-4-hydroxy-2-[(4-methoxyphenyl)methyl]pyrrolidin-3-yl 2-cyclopropylacetate]"
> 30,> 30,> 30,–,–,"COc1ccc(C[C@H]2NC[C@H](O)[C@H]2OC(=O)c2ccc3onc(N)c3c2)cc1 [V000148, (2R,3S,4S)-4-hydroxy-2-[(4-methoxyphenyl)methyl]pyrrolidin-3-yl 3-amino-1,2-benzoxazole-5-carboxylate]"
< 10,< 10,< 10,–,–,"COc1ccc(C[C@H]2NC[C@H](O)[C@H]2OC(=O)Cc2cccnc2)cc1 [V187057, (2R,3S,4S)-4-hydroxy-2-[(4-methoxyphenyl)methyl]pyrrolidin-3-yl 2-(pyridin-3-yl)acetate]"
10 to 20,> 30,10 to 20,–,–,"COc1ccc(C[C@H]2NC[C@H](O)[C@H]2OC(=O)Cc2ccc(OC(F)(F)F)cc2)cc1 [V187159, (2R,3S,4S)-4-hydroxy-2-[(4-methoxyphenyl)methyl]pyrrolidin-3-yl 2-[4-(trifluoromethoxy)phenyl]acetate]"

# Continued, molecule first:
SMILES,IC50 [1] [µM],IC50 [2] [µM],IC50 [3] [µM],IC50 [4] [µM],IC50 [5] [µM]
"COc1ccc(C[C@H]2NC[C@H](O)[C@H]2OC(=O)CCNC(C)C)cc1 [V187155, (2R,3S,4S)-4-hydroxy-2-[(4-methoxyphenyl)methyl]pyrrolidin-3-yl 3-(isopropylamino)propanoate; trifluoroacetic acid]",10 to 20,> 30,> 30,< 10,–
"COc1ccc(C[C@H]2NC[C@H](O)[C@H]2OC(=O)C2CCC2)cc1 [V186921, (2R,3S,4S)-4-hydroxy-2-[(4-methoxyphenyl)methyl]pyrrolidin-3-ylcyclobutanecarboxylate; trifluoroacetic acid]",–,< 10,< 10,< 10,–
"COc1ccc(C[C@H]2NC[C@H](O)[C@H]2OC(=O)CC(F)(F)F)cc1 [V187162, (2R,3S,4S)-4-hydroxy-2-[(4-methoxyphenyl)methyl]pyrrolidin-3-yl 3,3,3-trifluoropropanoate; trifluoroacetic acid]",< 10,< 10,< 10,< 10,–
COc1ccc(C[C@H]2NC[C@H](O)[C@H]2OC(C)=O)cc1C#N [V188045],–,–,> 30,> 30,> 30
"COc1ccc(C[C@H]2NC[C@H](O)[C@H]2OC(=O)CNC2CC2)cc1 [V187170, (2R,3S,4S)-4-hydroxy-2-[(4-methoxyphenyl)methyl]pyrrolidin-3-yl 2-(cyclopropylamino)acetate]",< 10,–,< 10,< 10,–
COCCC(=O)OC1[C@@H](O)CN[C@@H]1Cc1ccc(OC)cc1 (stereo partly shown) [V187168],< 10,–,< 10,< 10,–
COc1ccc(C[C@H]2NC[C@H](O)[C@H]2OC(=O)CNC2CC(F)(F)C2)cc1 [V187172],< 10,< 10,< 10,< 10,–
"CC(=O)O[C@@H]1[C@@H](O)CN[C@@H]1Cc1ccc(-c2cn(-c3ccnc(N)n3)nn2)cc1 [V188057, (2R,3S,4S)-2-({4-[1-(2-aminopyrimidin-4-yl)-1,2,3-triazol-4-yl]phenyl}methyl)-4-hydroxypyrrolidin-3-yl acetate]",–,–,< 10,< 10,–
COc1ccc(C[C@H]2NC[C@H](O)[C@H]2OC(C)=O)cc1F [V187569],–,–,< 10,< 10,< 10
"COc1ccc(C[C@H]2NC[C@H](O)[C@H]2OC(=O)CN2CC(F)(F)C2)cc1 [V187045, (2R,3S,4S)-4-hydroxy-2-[(4-methoxyphenyl)methyl]pyrrolidin-3-yl 2-(3,3-difluoroazetidin-1-yl)acetate; trifluoroacetic acid]",< 10,–,–,< 10,–
COc1ccc(C[C@H]2NC[C@H](O)[C@H]2OC(=O)Cc2ccncc2)cc1 [V187056],< 10,–,< 10,< 10,–
"COc1ccc(C[C@H]2NC[C@H](O)[C@H]2OC(=O)Cc2ccc(Cl)cc2)cc1 [V187055, (2R,3S,4S)-4-hydroxy-2-[(4-methoxyphenyl)methyl]pyrrolidin-3-yl 2-(4-chlorophenyl)acetate; trifluoroacetic acid]",–,< 10,< 10,< 10,< 10
